{"source": "patent US5753483A", "about": "(priority 1995, dated 1998)", "key": {"[1]": {"test_system": "sheep brain enzyme", "conditions": "cited from earlier work"}, "[2]": {"test_system": "UDP-GlcNAc pyrophosphorylase", "conditions": "calf liver and Staphylococcus aureus preparations; cited from earlier work"}, "[3]": {"test_system": "enzyme from bacteria", "conditions": "cited from earlier work"}, "[4]": {"test_system": "UDP-GlcNAc pyrophosphorylase", "assay": "Inhibition of pyrophosphorolysis of UDP-[^3 H]GlcNAc by nucleotides (FIG. 3)", "format": "biochemical, pig", "conditions": "increasing concentrations; reverse direction", "method": "Activity was measured in the reverse direction (i.e., production of GlcNAc-1-P) as indicated.\n(§1) When measured in the reverse direction, either a direct assay or an indirect assay could be used. […] The incubation mixtures contained the following components in a final volume of 50 μl: 5 mM sodium pyrophosphate, 250 uM UDP-[^3 H]GlcNAc (2.2 Ci/mmol), 100 mM Tris HCl buffer, pH 8.5, 2 mM MgCl2, and various amounts of enzyme at the different stages of purification. […] The suspension was vortexed vigorously for 2 minutes, and was then centrifuged in a microfuge. The supernatant liquid was removed and saved, and the charcoal was washed with 1 ml of water. The supernatant liquid from this wash was combined with the first supernatant liquid, and an aliquot was removed and counted, as a measure of the formation of GlcNAc-1-P."}, "[5]": {"target": "T1, Pyrophosphorylase (Sus scrofa, UniProt F1S210)", "T1 construct": "64 and 55 kDa bands; native about 125 kDa", "T1 sequence (F1S210 1-505)": "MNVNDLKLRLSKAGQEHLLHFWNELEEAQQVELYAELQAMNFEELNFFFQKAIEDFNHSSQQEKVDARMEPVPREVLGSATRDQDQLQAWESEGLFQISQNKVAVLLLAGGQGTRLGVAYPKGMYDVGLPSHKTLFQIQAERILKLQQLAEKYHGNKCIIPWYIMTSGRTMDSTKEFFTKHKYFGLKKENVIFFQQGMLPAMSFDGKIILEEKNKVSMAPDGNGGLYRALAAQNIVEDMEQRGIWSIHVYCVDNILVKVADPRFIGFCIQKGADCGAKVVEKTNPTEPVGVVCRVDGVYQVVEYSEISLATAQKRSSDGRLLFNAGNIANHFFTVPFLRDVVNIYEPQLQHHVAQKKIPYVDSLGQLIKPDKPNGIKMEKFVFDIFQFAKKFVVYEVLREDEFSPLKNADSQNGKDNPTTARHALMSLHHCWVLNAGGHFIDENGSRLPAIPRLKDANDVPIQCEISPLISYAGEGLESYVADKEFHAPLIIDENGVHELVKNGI", "assay": "Specificity of pyrophosphorylase (reverse direction)", "format": "biochemical, pig", "method": "as §1\n(§2) For the indirect assay, a modification of the spectrophotometric method of Munch-Petersen, (1956) Acta Chim. Scand. […] The assay mixtures contained 50 mM Tris-HCl buffer, pH 7.5, 1 mM MgCl2, 0.5 mM ADP, 1 mM glucose, 0.5 mM NADP, 1 mM inorganic pyrophosphate, 2 mM UDP-HexNAc and 2.5 units each of nucleoside diphosphate kinase, hexokinase and glucose-6-P dehydrogenase.\nThe substrate specificity of the purified enzyme was examined in both the forward and the reverse direction."}, "[6]": {"test_system": "UDP-GlcNAc pyrophosphorylase", "conditions": "reverse direction, at 1 mM inorganic pyrophosphate", "method": "as §1, §2"}, "[7]": {"target": "T2, UDP-GlcNAc pyrophosphorylase (Sus scrofa, UniProt F1S210)", "T2 construct": "both 64 and 55 kDa bands photolabelled", "T2 sequence (F1S210 1-505)": "as above", "assay": "Photoaffinity labeling of purified pyrophosphorylase and its inhibition (FIG. 5)", "format": "binding, pig", "conditions": "unlabeled UDP-GalNAc or UDP-glucose", "method": "Enzyme was incubated with radioactive probe in the presence or absence of various inhibitors, and some of the incubations were exposed to UV light to activate the probe. Each incubation was treated with trichloroacetic acid to precipitate the protein, and the pellet was resuspended in SDS and subjected to SDS-PAGE. Radioactive proteins were detected by exposure to film. […]"}, "[8]": {"test_system": "UDP-GlcNAc pyrophosphorylase", "conditions": "from 10 μmol GalNAc-1-P or glucose-1-P, and UTP", "experimental": "The reaction products, formed in either the forward direction (i.e., uridine diphosphate sugars), or in the reverse direction (i.e., UTP and sugar-i-P's), were isolated by chromatography on a 1×20\ncolumn of DEAE-cellulose (HCO3 -), equilibrated in 10 mM NH4 HCO3. After application of the sample, the column was washed with the same solution and the retained products were eluted with 200 ml of a linear 10 to 300 mM gradient of NH4 HCO3. Fractions were analyzed for nucleotides by measuring the absorption at 260 nm, for radioactivity by scintillation counting, and for hexosamine by the Reissig test (J. Biol. Chem., 217, 959-966, 1955) or the or the Elson Morgan assay (Wheat, R. W. (1966) Meth. Enzymol. 8, 60-78). Peak fractions were pooled and concentrated on a rotary evaporator and NH4 H CO3 was removed by evaporation in the presence of triethylamine. The triethylamine was in turn removed by evaporation in the presence of methanol.\nThe reaction products were identified by chromatography, either directly, or following various treatments such as digestion with phosphodiesterase or alkaline phosphatase, or acid hydrolysis. Nucleotides were identified by TLC in the following systems: PEI plates developed in 0.2M and 0.4M solutions of LiCl; cellulose plates in ethanol: 1M ammonium acetate, pH 7.3 (7:3), or silica gel plates in ethanol: 1M ammonium acetate, pH 5.0 (7:3). N-acetyl-hexosamines were released from nucleotides by mild acid hydrolysis (0.01 N HCl, 100° C., 15 minutes) and identified by chromatography on borate-treated paper in n-butanol:pyridine:water (6:4:3) as described earlier by Cardini and Leloir, (1953) Arch. Biochem. Biophys., 45, 317-324.\nAfter deproteinization, the aqueous phase was applied to a column of DE-52 and sugar phosphates and nucleoside diphosphate sugars were separated with a gradient of NH4 HCO3, as shown in FIG. 4. […] The peak was pooled and subjected to TLC in 3 different solvent systems as described above.\nThe characterization of these products was also based on the products produced by phosphosdiesterase, mild acid hydrolysis and other treatments."}}, "data": [{"smiles": "CC(=O)N[C@H]1[C@@H](OP(=O)(O)OP(=O)(O)OC[C@H]2O[C@@H](n3ccc(=O)[nH]c3=O)[C@H](O)[C@@H]2O)O[C@H](CO)[C@H](O)[C@@H]1O", "note": "[UDP-GalNAc, UDP-N-acetylgalactosamine]", "values": [{"measurement": "activity as substrate (in words)", "setting": "[1]", "result": "not with UDP-GalNAc"}, {"measurement": "rate of phosphorolysis relative to UDP-GlcNAc", "setting": "[2]", "result": "about 2.8%"}, {"measurement": "activity relative to UDP-GlcNAc", "setting": "[3]", "result": 2.6, "unit": "%"}, {"measurement": "inhibition of reaction with UDP-[^3 H]GlcNAc", "setting": "[4]", "result": "inhibited by increasing concentrations"}, {"measurement": "substrate preference, reverse direction", "setting": "[5]", "result": "preferred UDP-GalNAc over UDP-GlcNAc"}, {"measurement": "Activity", "setting": "[5]; 5 mM, PP = 1 mM", "result": 19.7, "unit": "nmol/min"}, {"measurement": "Relative Activity", "setting": "[5]; 5 mM, PP = 1 mM, UDP-GalNAc = 100", "result": 100, "unit": "%"}, {"measurement": "Km", "setting": "[6]", "result": 200, "unit": "µM"}, {"measurement": "Vmax", "setting": "[6]", "result": 31.3, "unit": "nmol/min"}, {"measurement": "inhibition of labeling", "setting": "[7]", "result": "also blocked, although not nearly as effectively"}, {"measurement": "amount formed", "setting": "[8]", "result": 8.2, "unit": "µmol"}, {"measurement": "amount formed, percent", "setting": "[8]", "result": 82, "unit": "%"}]}]}
